# Results reported in publication PMC4298654, “In vivo formation of N-acyl-fumonisin B1” (Mycotoxin Research, 2014).
# Like-named read-outs stand apart in the source and are kept apart here.
# Legend:
# [1] = rats fed with fumonisin-contaminated diet; ref Riley and Voss 2006; cited from earlier work
# [2] = In vivo formation of NAFB1 and NAHFB1 in rat kidney and liver (HPLC-ESI-MS/MS); conditions: kidney; FB1 2.77 or HFB1 2.47 μmol/kg body weight per day ip, 5 days
# [3] = set-up: method as in Martinez-Larranaga et al. 1999; conditions: single dose, ref Martinez-Larranaga et al. 1999, cited from earlier work
# [4] = set-up: method as in Bulder et al. 2012; conditions: ref Bulder et al. 2012; cited from earlier work
# rat liver and kidney = experiment: Histological examination of rat liver and kidney; format: in vivo; conditions: ip, 5 days; FB1 0.5, 1.0, 2.0 mg/kg or HFB1 1.0 mg/kg body weight per day; n = 2/group
# Text: The study protocol was approved by the Institutional Animal Care and Use Committee, Richard B. Russell Agricultural Research Center, Athens, GA. Male Sprague–Dawley rats (Harlan Industries, Indianapolis, IN, USA), 7 weeks of age at receipt, were individually housed in stainless steel, wire mesh cages in an environmentally controlled room having a 12-h light/dark cycle. Food (2019 Global Rodent Diet, Teklad, Madison, WI, USA) and fresh tap water were provided ad libitum. After a 1 week acclimation period, the animals were randomly assigned to five groups (n = 2/group) having mean weights of 215 to 216 g (weight range of all animals, 211 to 220 g). For five consecutive days, they were observed, weighed, and given an intraperitoneal injection (ip) of 0 (vehicle), 0.5, 1.0, or 2.0 mg/kg body weight FB1 (provided by R. Eppley, US FDA), 1.0 mg/kg body weight HFB1 (positive control) (Voss et al. [2009]), or vehicle (0.9 % physiological saline). […] In order to compare the effects of FB1 and HFB1, dosages will be expressed as molar concentrations and, on this basis, the high dose of FB1 is roughly equivalent to that of the positive control dose of HFB1. […] The kidney and liver specimens were fixed in 10 % neutral buffered formalin, processed, and microscopically evaluated without knowledge of the animal’s identity or treatment group. […]
# sphingolipid metabolism = experiment: Sphingolipid levels in rat kidney and liver after ip FB1 or HFB1; format: in vivo; conditions: 5 days
# Text: The study protocol was approved by the Institutional Animal Care and Use Committee, Richard B. Russell Agricultural Research Center, Athens, GA. Male Sprague–Dawley rats (Harlan Industries, Indianapolis, IN, USA), 7 weeks of age at receipt, were individually housed in stainless steel, wire mesh cages in an environmentally controlled room having a 12-h light/dark cycle. Food (2019 Global Rodent Diet, Teklad, Madison, WI, USA) and fresh tap water were provided ad libitum. After a 1 week acclimation period, the animals were randomly assigned to five groups (n = 2/group) having mean weights of 215 to 216 g (weight range of all animals, 211 to 220 g). For five consecutive days, they were observed, weighed, and given an intraperitoneal injection (ip) of 0 (vehicle), 0.5, 1.0, or 2.0 mg/kg body weight FB1 (provided by R. Eppley, US FDA), 1.0 mg/kg body weight HFB1 (positive control) (Voss et al. [2009]), or vehicle (0.9 % physiological saline). These doses corresponded to 0.69, 1.38, and 2.77 μmol FB1/kg body weight and 2.47 μmol/kg body weight HFB1 per day. In order to compare the effects of FB1 and HFB1, dosages will be expressed as molar concentrations and, on this basis, the high dose of FB1 is roughly equivalent to that of the positive control dose of HFB1. Dosing solutions were sterile filtered and administered at a volume rate of 10 ml/kg body weight. The animals were fasted overnight prior to administration of the final dose. The rats were euthanized (CO2 inhalation and exsanguination) 60 to 90 min following the final dose administration and examined by necropsy. The kidney and liver specimens were fixed in 10 % neutral buffered formalin, processed, and microscopically evaluated without knowledge of the animal’s identity or treatment group. Three representative liver and kidney specimens (100 mg each) were also collected, immediately frozen, and stored (−80 °C) until processed, at which time the tissues were thawed and homogenized in distilled/deionized water (1 ml water/100 mg tissue). The homogenates were lyophilized before they were shipped by overnight courier for the analysis of fumonisin metabolites and sphingolipids.
# Lyophilized liver and kidney tissues (100 mg wet weight equivalents) were processed for the quantification of FB1, HFB1, NAFB1, NAHFB1, and sphingolipids. Preparation of the tissue samples was performed according to a previously published method (Harrer et al. [2013]). For the quantification of FB1 and HFB1, a d6-labeled derivative of FB1 (FB1-d6) was used as the internal standard. Synthetic derivatives with a heptadecanoic fatty acid (C17:0) residue were used as internal standards for the quantification of N-acyl-fumonisins and ceramides (N-C17:0-FB1, N-C17:0-HFB1, and N-C17:0-ceramide). The sphingoid bases and their phosphate derivatives were quantified using synthetic derivatives with a C17-acyl-backbone: sphingosine (C17:1), sphingosine-1-phosphate (C17:1), sphinganine (C17:0), sphinganine-1-phosphate (C17:0) as internal standards. The standards were dissolved in methanol:chloroform (2:1, v/v) and then mixed with the tissue samples. The samples spiked with internal standard were kept at room temperature for 30 min before being processed further. The internal standard-spiked samples were first extracted with ethyl acetate, isopropanol, and water (60:30:10, v/v/v) and a second time using methanol, chloroform, and water (60:30:10, v/v/v). The extracts were combined, the solvents removed by evaporation, and the dried samples stored at−80 °C till analyzed.
# [5] = kidney, dose High: 2.77 μmol FB1/kg or 2.47 μmol HFB1/kg body weight per day ip
# [6] = kidney, dose Low: 0.69 μmol FB1/kg body weight per day ip
# [7] = kidney, dose Mid: 1.38 μmol FB1/kg body weight per day ip
# [8] = liver, dose High: 2.77 μmol FB1/kg or 2.47 μmol HFB1/kg body weight per day ip
# [9] = liver, dose Low: 0.69 μmol FB1/kg body weight per day ip
# [10] = liver, dose Mid: 1.38 μmol FB1/kg body weight per day ip
smiles,measurement,setting,value
"CCCC[C@@H](C)[C@@H](OC(=O)C[C@@H](CC(=O)O)C(=O)O)[C@H](C[C@@H](C)C[C@H](O)CCCC[C@@H](O)C[C@H](O)[C@H](C)N)OC(=O)C[C@@H](CC(=O)O)C(=O)O [FB1, Fumonisin B1]",FB1 concentration (ng/g wet weight) in the kidney relative to the liver,[1],approximately tenfold higher
same,metabolites of the dosed mycotoxin found in the kidney,[2],less than 0.5 nmol/g
same,AUCtissue/AUCplasma ratio,[3]; kidney,29.9
same,AUCtissue/AUCplasma ratio,[3]; liver,2.03
same,absorption after oral exposure,[4],< 5 % of dose
same,microscopic appearance of kidney and liver,rat liver and kidney,"Mild to moderate apoptotic, mitotic, and other effects consistent with fumonisin exposure"
same,tissue ceramide concentrations,"sphingolipid metabolism; kidney and liver, FB1 ip",decreased in both tissues
same,"levels of sphingoid bases and 1-phosphates (total sphingosine, total sphinganine) in tissues compared to vehicle-treated controls","sphingolipid metabolism; kidney and liver, ip",increased amounts
same,Sa/So ratio,sphingolipid metabolism; [5],3.8 ± 1.8
same,sphinganine (Sa),sphingolipid metabolism; [5],207 ± 79.9 nmol/g
same,sphinganine-1-phosphate (Sa1P),sphingolipid metabolism; [5],19.9 ± 1.0 nmol/g
same,sphingosine (So),sphingolipid metabolism; [5],56 ± 6.2 nmol/g
same,sphingosine-1-phospate (So1P),sphingolipid metabolism; [5],21.6 ± 4.5 nmol/g
same,Sa/So ratio,sphingolipid metabolism; [6],4.1 ± 1.0
same,sphinganine (Sa),sphingolipid metabolism; [6],252 ± 15.6 nmol/g
same,sphinganine-1-phosphate (Sa1P),sphingolipid metabolism; [6],16.7 ± 0.5 nmol/g
same,sphingosine (So),sphingolipid metabolism; [6],63 ± 11.5 nmol/g
same,sphingosine-1-phospate (So1P),sphingolipid metabolism; [6],21.4 ± 4.1 nmol/g
same,Sa/So ratio,sphingolipid metabolism; [7],2.5 ± 0.2
same,sphinganine (Sa),sphingolipid metabolism; [7],146 ± 11.3 nmol/g
same,sphinganine-1-phosphate (Sa1P),sphingolipid metabolism; [7],11.3 ± 1.5 nmol/g
same,sphingosine (So),sphingolipid metabolism; [7],59 ± 8.3 nmol/g
same,sphingosine-1-phospate (So1P),sphingolipid metabolism; [7],20.8 ± 0.7 nmol/g
same,Sa/So ratio,sphingolipid metabolism; [8],5.9 ± 0.0
same,sphinganine (Sa),sphingolipid metabolism; [8],81 ± 17.1 nmol/g
same,sphinganine-1-phosphate (Sa1P),sphingolipid metabolism; [8],0.9 ± 0.5 nmol/g
same,sphingosine (So),sphingolipid metabolism; [8],14 ± 2.9 nmol/g
same,sphingosine-1-phospate (So1P),sphingolipid metabolism; [8],1.0 ± 0.3 nmol/g
same,Sa/So ratio,sphingolipid metabolism; [9],4.2 ± 0.9
same,sphinganine (Sa),sphingolipid metabolism; [9],68 ± 27.6 nmol/g
same,sphinganine-1-phosphate (Sa1P),sphingolipid metabolism; [9],0.2 ± 0.2 nmol/g
same,sphingosine (So),sphingolipid metabolism; [9],16 ± 3.3 nmol/g
same,sphingosine-1-phospate (So1P),sphingolipid metabolism; [9],0.4 ± 0.2 nmol/g
same,Sa/So ratio,sphingolipid metabolism; [10],5.5 ± 1.2
same,sphinganine (Sa),sphingolipid metabolism; [10],88 ± 15.1 nmol/g
same,sphinganine-1-phosphate (Sa1P),sphingolipid metabolism; [10],0.4 ± 0.1 nmol/g
same,sphingosine (So),sphingolipid metabolism; [10],17 ± 6.4 nmol/g
same,sphingosine-1-phospate (So1P),sphingolipid metabolism; [10],0.8 ± 0.0 nmol/g
